{"source": "patent US20150072416A1", "about": "“METABOLITE FOR IMPROVING PRODUCTION, MAINTENANCE AND PROLIFERATION OF PLURIPOTENT STEM CELLS, COMPOSITION COMPRISING THE SAME, AND METHOD OF CULTURING PLURIPOTENT STEM CELL USING THE SAME” (KOREA RESEARCH INSTITUTE OF BIOSCIENCE AND BIOTENOLOGY, priority 2012, published 2015)", "key": {"[1]": {"system": "human foreskin fibroblasts (hFFs)", "experiment": "Reprogramming efficiency of human fibroblasts into induced pluripotent stem cells (AP-positive colonies)", "format": "cell-based", "details": "for efficiency of reprogramming by timing of treatment: 1 mM", "experimental": "Reprogramming efficiency was determined by measuring the number of colonies showing a positive response in the pluripotency-specific marker alkaline phosphatase (AP) staining and having hESC-like morphology. For production of iPSC, human foreskin fibroblasts (hFFs) were seeded on gelatin-coated 6-well plates at a concentration of 1×10^5 cells per well at 6 hours before transfection and were transfected with virus in the presence of polybrene (6 μg/ml). At 5 days after the transfection, the hFFs were collected by trypsin treatment and reseeded on Matrigel-coated 6-well plates at a concentration of 5-6×10^4 cells per well in order to perform experiments in feeder-free conditions. The medium was replaced with MEF-CM medium containing 10 ng/ml of bFGF. The medium was replaced at 2-day intervals. At 20 days after the transfection, hESC-like colonies were collected and transferred to 12-well plates having MEFs as feeder cells, and then the colonies were continuously cultured using the hESC culture method described in Example 1. In order to measure the efficiency of reprogramming into human induced pluripotent stem cells, the number of colonies stained with the embryonic stem cell marker ALP on the Matrigel-coated 6-well plate was counted, and the efficiency of reprogramming was calculated. Each experiment was performed in triplicate. AP staining was performed using a commercial AP kit (Sigma) according to the manufacturer's instruction. Images of AP-positive cells were recorded with HP Scanjet G4010. Also, bight field images were obtained with an Olympus microscope (IX51, Olympus, Japan). In order to examine the change in reprogramming efficiency of human fibroblasts caused by nicotinamide, retrovirus expressing the reprogramming factors Oct4, Sox2, Klf4 and c-Myc was transfected at an MOI of 1. Reprogramming efficiencies caused by the addition of nicotinamide and other NAD precursors were examined."}, "[2]": {"system": "H9 human embryonic stem cells", "experiment": "BrdU incorporation assay in human embryonic stem cells in mTeSR1", "format": "cell-based", "experimental": "For 5-bromo)-2-deoxyuridine (BrdU; BD Pharmingen, San Diego) incorporation assays, human embryonic stem cells were cultured on Matrigel-coated 4-well LabTec chamber slides for 4 days.\nSpecifically, for BrdU incorporation, cells were incubated in the presence of 30 μM BrdU at 37° C. for 1 hour. After washing with PBS, the cells were fixed with 4% paraformaldehyde for 15 minutes and reacted in 1N HCl at room temperature for 15 minutes. The sample was washed and reacted with 0.1 M sodium tetraborate for 15 minutes. After washing, the cells were reacted with anti-BrdU antibody in 3% BSA-containing PBS for 1 hour, and then reacted with FITC-conjugated secondary antibody for 30 minutes.\nIn order to verify the effect of nicotinamide on the proliferation of pluripotent stem cells, a BrdU incorporation assay was performed. Nicotinamide was added to mTeSR1 (CDM) at various concentrations, and the effects thereof were examined."}, "[3]": {"system": "human fibroblasts transfected with reprogramming factor OSKM", "experiment": "Senescence-associated beta-galactosidase staining and senescence-associated DNA damage staining during reprogramming", "format": "cell-based", "details": "for decrease in number of senescent cells: 10 mM", "experimental": "On day 26 of induction of reprogramming, the cells were fixed with a fixation solution at room temperature for 10 minutes, and then stained with a β-galactosidase solution at room temperature for 15 minutes. Next, the DNA was stained with DAPI (4′,6-diamidino-2-phenylindole) for 5 minutes, and then the cells were imaged by phase-contrast and fluorescence microscopy. The number of cells having senescence (green) damaged DNA (blue combined points) was counted and quantified relative to the number of normal cells."}, "[4]": {"system": "H9 human embryonic stem cells and human induced pluripotent stem cells", "experiment": "Low-density cloning after single-cell dissociation (AP staining, apoptosis)", "format": "cell-based", "details": "AP staining and apoptosis assays", "experimental": "(§1) In order to examine the effect of nicotinamide on a reduction in the apoptosis of human pluripotent stem cells, dual apoptosis assay (Biotium, Hayward, Calif.) was performed. Embryonic stem cells or cells reprogrammed were stained with NucView™488 Caspase-3 Substrate (green)/Annextin V (red) at room temperature for 30 minutes, followed by washing with PBS. At least 4 sections of each sample were imaged with an Olympus fluorescence microscope (IX51, Olympus), and the number of cells stained with green (Caspase-3) was counted to quantify the degree of apoptosis.\nIn order to examine the effect of nicotinamide on the survival of human pluripotent stem cells at low density, human pluripotent stem cells were treated with TrypLE reagent (Invitrogen) for 3 minutes, and then dissociated into single cells by pipetting and seeded on a Matrigel-coated 96-well plate at a density of 500 cells per well. After 5 days of culture, human pluripotent stem cell colonies started to be formed, and the cells were fixed with 4% paraformaldehyde, and then AP staining was performed or the level of apoptosis was measured."}, "[5]": {"system": "human pluripotent stem cells", "experiment": "Long-term subculture in UM with nicotinamide (TRA-1-60 staining, karyotyping)", "format": "cell-based"}, "[6]": {"system": "embryonic stem cells", "experiment": "Embryonic stem cells treated with NAD+ synthesis inhibitor FK866 and NAD precursors (NAD level, AP activity, apoptosis)", "format": "cell-based, human", "details": "co-treatment with FK866; also in mTeSR1-CDM", "experimental": "Embryonic stem cells were treated with nicotinamide and related compounds, and after 6 days, protein was isolated from the cells. NAD cycling enzyme was added to and reacted with 20 μg of the protein per each group at room temperature for 5 minutes, and then a NADH developer was added and reacted therewith for 2-3 hours. The absorbance at 450 nm was measured using a microplate reader, and the amount of the […] was quantified.\nAP staining was performed using a commercial AP kit (Sigma) according to the manufacturer's instruction. Images of AP-positive cells were recorded with HP Scanjet G4010. Also, bight field images were obtained with an Olympus microscope (IX51, Olympus, Japan).\nas §1"}}}
{"smiles": "NC(=O)c1cccnc1", "note": "[nicotinamide]", "values": [{"measurement": "increase in reprogramming efficiency (AP-positive colonies)", "setting": "[1]; 0.1 mM nicotinamide, compared to untreated group", "value": 13, "unit": "times"}, {"measurement": "increase in reprogramming efficiency (AP-positive colonies)", "setting": "[1]; 1 mM nicotinamide, compared to untreated group", "value": 28, "unit": "times"}, {"measurement": "increase in reprogramming efficiency (AP-positive colonies)", "setting": "[1]; 10 mM nicotinamide, compared to untreated group", "value": 16, "unit": "times"}, {"measurement": "increase in reprogramming efficiency (AP-positive colonies)", "setting": "[1]; 20 mM nicotinamide, compared to untreated group", "value": 2, "unit": "times"}, {"measurement": "increase in reprogramming efficiency (AP-positive colonies)", "setting": "[1]; compared to the addition of other NAD precursors, OSKM retrovirus MOI 1", "value": "about 17 times"}, {"measurement": "efficiency of reprogramming by timing of treatment", "setting": "[1]; continuous treatment throughout the process of inducing reprogramming", "value": "highest increase"}, {"measurement": "reprogramming efficiency, same cell number reseeded", "setting": "[1]; nicotinamide for 5 days after infection, not added after reseeding, vs untreated control", "value": "increase in reprogramming efficiency"}, {"measurement": "reprogramming efficiency, same cell number reseeded", "setting": "[1]; nicotinamide only after reseeding (21 days), not in initial stage, vs untreated", "value": "increase in reprogramming efficiency"}, {"measurement": "efficiency of reprogramming by timing of treatment", "setting": "[1]; treatment in initial stage immediately after viral infection", "value": "most effectively increased"}, {"measurement": "increase in BrdU incorporation", "setting": "[2]; 0.1 mM in mTeSR1, compared to cells cultured in mTeSR1", "value": 1.6, "unit": "times"}, {"measurement": "increase in BrdU incorporation", "setting": "[2]; 1 mM in mTeSR1, compared to cells cultured in mTeSR1", "value": 1.2, "unit": "times"}, {"measurement": "decrease in cellular senescence-associated DNA damage", "setting": "[3]; 1 mM, compared to control group", "value": "83.0±0.5", "unit": "%"}, {"measurement": "decrease in ratio of cells stained with senescence-associated beta-galactosidase", "setting": "[3]; 1 mM, day 19, compared to untreated group", "value": "88.1±1.4", "unit": "%"}, {"measurement": "decrease in ratio of cells stained with senescence-associated beta-galactosidase", "setting": "[3]; 1 mM, day 26, compared to untreated group", "value": "76.9±2.5", "unit": "%"}, {"measurement": "decrease in number of senescent cells", "setting": "[3]; day 19, compared to control group", "value": "76.1±1.4", "unit": "%"}, {"measurement": "decrease in number of senescent cells", "setting": "[3]; day 21, compared to control group", "value": "30.8±9.0", "unit": "%"}, {"measurement": "survival and self-renewal abilities at low density after single-cell dissociation", "setting": "[4]", "value": "significantly increased"}, {"measurement": "passages subcultured in an undifferentiated state", "setting": "[5]; UM with 0.1 mM nicotinamide, TRA-1-60 staining", "value": "≥ 10", "unit": "passages"}, {"measurement": "karyotype after long-term subculture", "setting": "[5]; nicotinamide-containing medium", "value": "normal karyotypes"}, {"measurement": "recovery from damage caused by FK866", "setting": "[6]", "value": "recovered"}]}
